This passage reports EC50 results from patent publication US9120779B2, “Inhibitors of HCV NS5A” (PRESIDIO PHARMACEUTICALS, INC., priority 2008, dated 2015).

Molecules are shown by their SMILES.

For the first assay, the system named is HCV genotype 1b replicon in Huh 7 cells. Briefly: HCV replicon assay (luciferase readout, 1b_Huh-Luc/Neo-ET cell line). In kind it is cell-based. The note with it: Hepatitis C virus, Huh-7, 72 h, read-out: Inhibition of HCV genotype 1b, Table 1, 72 h incubation. In outline:
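Huh 7 cells carrying a bicistronic genotype 1b luciferase replicon treated with compound in triplicate for 72 h. Replicon level read as luciferase activity (Bright-Glo), expressed as % of control; EC50 from a sigmoidal Hill-slope fit, repeated several times.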
For the compound `CC(C)[C@@H](NC(=O)OC(C)(C)C)C(=O)N1CCC[C@H]1C(=O)N[C@H]1CC[C@@H](c2ccc(-c3cnc([C@@H]4CCCN4C(=O)[C@H](NC(=O)OC(C)(C)C)C(C)C)[nH]3)cc2)CC1` [compound 357], the EC50 lay within 10 to 999 nM.
Consider `COC(=O)N[C@H](C(=O)N1CCC[C@H]1c1ncc(-c2ccc([C@H]3CC[C@H](c4cnc([C@@H]5CCCN5C(=O)[C@@H](NC(=O)OC)C5CC5)[nH]4)CC3)cc2)[nH]1)C1CC1` [compound 942], for which the EC50 is less than 1 nM.
On to `O=C(N[C@@H](C(=O)N1CCC[C@H]1c1ncc(-c2ccc(C3CCC(c4cnc([C@@H]5CCCN5C(=O)[C@H](NC(=O)N5CCOCC5)c5ccccc5)o4)CC3)cc2)[nH]1)c1ccccc1)N1CCOCC1` (some centres unmarked) [compound 358], for which the EC50 is less than 1 nM.
As to `O=C(N[C@H]1CC[C@@H](c2ccc(-c3cnc([C@@H]4CCCN4C(=O)[C@H](NC(=O)N4CCOCC4)c4ccccc4)[nH]3)cc2)CC1)[C@@H]1CCCN1C(=O)[C@H](NC(=O)N1CCOCC1)c1ccccc1` [compound 355], the EC50 was 1 to 9.9 nM.
Turning to `CC(C)[C@H](NC(=O)N1CCOCC1)C(=O)N1CCC[C@H]1c1ncc(-c2ccc([C@H]3CC[C@H](c4cnc([C@@H]5CCCN5C(=O)[C@@H](NC(=O)N5CCOCC5)C(C)C)[nH]4)CC3)cc2)[nH]1` [compound 385], the EC50 was 10 to 999 nM.
For `CC(C)[C@@H](NC(=O)N1CCOCC1)C(=O)N1CCC[C@H]1C(=O)N[C@H]1CC[C@@H](c2ccc(-c3cnc([C@@H]4CCCN4C(=O)[C@H](NC(=O)N4CCOCC4)C(C)C)[nH]3)cc2)CC1` [compound 361], the EC50 is 10 to 999 nM.
In the case of `COC(=O)N[C@@H](C(=O)N1CCC[C@H]1c1ncc(-c2ccc([C@H]3CC[C@H](NC(=O)[C@@H]4CCCN4C(=O)[C@H](NC(=O)N4CCOCC4)c4ccccc4)CC3)cc2)[nH]1)c1ccccc1` [compound 369], the EC50 is 1 to 9.9 nM.
Regarding `CC(C)[C@@H](NC(=O)OC(C)(C)C)C(=O)N1CCC[C@H]1c1ncc(-c2ccc(C3CCC(c4cnc([C@@H]5CCCN5C(=O)[C@H](NC(=O)OC(C)(C)C)C(C)C)[nH]4)CC3)cc2)[nH]1` (some centres unmarked) [compound 366], the EC50 fell in the range of 10 to 999 nM.
As for `COC(=O)N[C@H](Cc1ccccc1)C(=O)N1CCC[C@H]1c1ncc(C2CCC(c3ccc(-c4cnc([C@@H]5CCCN5C(=O)[C@@H](c5ccccc5)N5CCCC5)[nH]4)cc3)CC2)[nH]1` (some centres unmarked) [compound 375], the EC50 was less than 1 nM.
Regarding `CNC(=O)N[C@H](C(=O)N1CCC[C@H]1c1ncc(-c2ccc([C@H]3CC[C@H](c4cnc([C@@H]5CCCN5C(=O)[C@H](NC(=O)OC)c5ccccc5)[nH]4)CC3)cc2)[nH]1)C(C)C` [compound 2004], the EC50 was less than 1 nM.
For `COC(=O)N[C@@H](C)C(=O)N1CCC[C@H]1c1ncc(-c2ccc([C@H]3CC[C@H](c4cnc([C@@H]5CCCN5C(=O)[C@H](C)NC(=O)OC)[nH]4)CC3)cc2)[nH]1` [compound 387], the EC50 was less than 1 nM.

The same assay, now with this note: Hepatitis C virus, Huh-7, 72 h, read-out: Inhibition of HCV genotype 1b, Table 2, 72 h incubation.
For `COC(=O)N[C@@H](C(=O)N1CCC[C@H]1c1ncc(-c2ccc(-c3ccc4nc([C@@H]5CCCN5C(=O)[C@H](NC(=O)OC)C(C)C)[nH]c4c3)cc2)[nH]1)C(C)C` [compound 404], the EC50 lay within 1 to 9.9 nM.

The assay is the same for the next values; noted with them: Hepatitis C virus, Huh-7, 72 h, read-out: Inhibition of HCV genotype 1b, Table 3, 72 h incubation.
Consider `C[C@@H](c1ncc(C2CCN(c3c(F)cc(-c4cnc([C@@H]5CCCN5C(=O)[C@H](NC(=O)C5CC5)c5ccccc5)[nH]4)cc3F)CC2)[nH]1)N(C)C(=O)[C@H](NC(=O)C1CC1)c1ccccc1` [compound 511], for which the EC50 was less than 1 nM.
On to `CCOC(=O)N[C@@H](C(=O)N1CCC[C@H]1c1ncc(C2CCN(c3c(F)cc(-c4cnc([C@@H]5CCCN5C(=O)[C@H](NC(=O)OC)c5ccccc5)[nH]4)cc3F)CC2)[nH]1)c1ccccc1` [compound 476], for which the EC50 was less than 1 nM.
`O=C(N[C@@H](C(=O)N1CCOC[C@H]1c1ncc(-c2cc(F)c(N3CCC(c4cnc([C@@H]5CCCN5C(=O)[C@H](NC(=O)C5CC5)c5ccccc5)[nH]4)CC3)c(F)c2)[nH]1)c1ccccc1)C1CC1` [compound 510]: the EC50 was less than 1 nM.
Consider `CC(C)(C)OC(=O)N[C@@H](C(=O)N1CCC[C@H]1c1ncc(-c2ccc(N3CCC(c4cnc([C@@H]5CCCN5C(=O)[C@H](NC(=O)OC(C)(C)C)c5ccccc5)[nH]4)CC3)c(F)c2)[nH]1)c1ccccc1` [compound 450], for which the EC50 was less than 1 nM.
Take `COC(=O)N[C@@H](C(=O)N1CCC[C@H]1c1ncc(-c2cc(F)c(N3CCC(c4cnc([C@@H]5CCCCN5C(=O)[C@H](NC(=O)C5CC5)c5ccccc5)[nH]4)CC3)c(F)c2)[nH]1)c1ccccc1` [compound 486]: the EC50 was less than 1 nM.
Turning to `O=C(N[C@@H](C(=O)N1CCC[C@H]1c1ncc(-c2cc(F)c(N3CCC(c4cnc([C@@H]5COCCN5C(=O)[C@@H](c5ccccc5)N5CCCCC5)[nH]4)CC3)c(F)c2)[nH]1)c1ccccc1)C1CC1` [compound 495], the EC50 was less than 1 nM.
Same read-out and setting: next, `COC(=O)N[C@@H](C(=O)N1CCC[C@H]1c1ncc(-c2cc(F)c(N3CCC(c4cnc([C@@H]5CCCN5C(=O)[C@@H](c5ccccc5)N(C)C)[nH]4)CC3)c(F)c2)[nH]1)c1ccccc1` [compound 458]: less than 1 nM.

Still in this assay, the particulars now being: Hepatitis C virus, Huh-7, 72 h, read-out: Inhibition of HCV genotype 1b, Table 4, 72 h incubation.
Regarding `COC(=O)N[C@H](C(=O)N1CCC[C@H]1c1nc2ccc(-c3ccc(-c4ccc5nc([C@@H]6CCCN6C(=O)[C@@H](NC(=O)OC)C(C)C)[nH]c5c4)cc3)cc2[nH]1)C(C)C` [compound 551], the EC50 is less than 1 nM.
For the compound `COC(=O)N[C@H](C(=O)N1CCC[C@H]1c1nc2ccc(-c3ccc(-c4ccc5nc([C@@H]6CCCN6C(=O)[C@@H](NC(=O)OC)[C@@H](C)OC)[nH]c5c4)cc3)cc2[nH]1)[C@@H](C)OC` [compound 555], the EC50 was less than 1 nM.
As for `CC(C)[C@H](NC(=O)N1CCCC1)C(=O)N1CCC[C@H]1c1nc2ccc(-c3ccc(-c4ccc5nc([C@@H]6CCCN6C(=O)[C@@H](NC(=O)N6CCCC6)C(C)C)[nH]c5c4)cc3)cc2[nH]1` [compound 552], the EC50 is more than 1000 nM.
Take `COC(=O)N[C@H](C(=O)N1CCC[C@H]1c1nc2ccc(-c3ccc(-c4ccc5nc([C@@H]6CCCN6C(=O)[C@@H](C(C)C)N(C)C)[nH]c5c4)cc3)cc2[nH]1)C(C)C` [compound 934]: the EC50 was less than 1 nM.
As for `COC(=O)N[C@H](C(=O)N[C@@H](C)c1nc2ccc(-c3ccc(-c4ccc5nc([C@H](C)NC(=O)[C@@H](NC(=O)OC)C(C)C)[nH]c5c4)cc3)cc2[nH]1)C(C)C` [compound 932], the EC50 is less than 1 nM.
For the compound `COC(=O)N[C@H](C(=O)N1CCC[C@H]1c1nc2ccc(-c3ccc(-c4ccc5nc([C@H](C)NC(=O)[C@@H](C(C)C)N(C)C)[nH]c5c4)cc3)cc2[nH]1)C(C)C` [compound 936], the EC50 was less than 1 nM.

The same assay, now with this note: Hepatitis C virus, Huh-7, 72 h, read-out: Inhibition of HCV genotype 1b, Table 5, 72 h incubation.
As for `COC(=O)N[C@H](C(=O)N1CCC[C@H]1c1ncc(-c2ccc(C34CCC(c5cnc([C@@H]6CCCN6C(=O)[C@@H](c6ccccc6)N(C)C)[nH]5)(CC3)CC4)cc2)[nH]1)C(C)C` [compound 2051], the EC50 is less than 1 nM.
On to `COC(=O)N[C@H](C(=O)N1CCC[C@H]1c1ncc(-c2ccc(C34CCC(c5cnc([C@@H]6CCCN6C(=O)[C@@H](NC(=O)N6CCOCC6)C(C)C)[nH]5)(CC3)CC4)cc2)[nH]1)C(C)C` [compound 2060], for which the EC50 is less than 1 nM.
Take `COC(=O)N[C@H](C(=O)N1CCC[C@H]1c1ncc(-c2ccc(C34CCC(c5cnc([C@@H]6CCCN6C(=O)[C@@H](NC(=O)OC)[C@@H](C)OC)[nH]5)(CC3)CC4)cc2)[nH]1)[C@@H](C)OC` [compound 612]: the EC50 was less than 1 nM.
Take `COC(=O)N[C@@H](C(=O)N1CCOC[C@H]1c1ncc(-c2ccc(C34CCC(c5cnc([C@@H]6CCCN6C(=O)[C@H](NC(=O)OC)c6ccccc6)[nH]5)(CC3)CC4)cc2)[nH]1)c1ccccc1` [compound 2086]: the EC50 was less than 1 nM.
Turning to `COC(=O)N[C@@H](C(=O)N1CCC[C@H]1c1ncc(-c2ccc(C34CCC(c5cnc([C@@H]6CCCN6C(=O)[C@H](C(C)C)N(C)C)[nH]5)(CC3)CC4)cc2)[nH]1)c1ccccc1` [compound 2063], the EC50 was less than 1 nM.
As to `CC(C)[C@H](NC(=O)N1CCC(O)CC1)C(=O)N1CCC[C@H]1c1ncc(-c2ccc(C34CCC(c5cnc([C@@H]6CCCN6C(=O)[C@@H](NC(=O)N6CCC(O)CC6)C(C)C)[nH]5)(CC3)CC4)cc2)[nH]1` [compound 630], the EC50 is more than 1000 nM.
As for `O=C(N[C@@H](C(=O)N1CCC[C@H]1c1ncc(-c2ccc(C34CCC(c5cnc([C@@H]6CCCN6C(=O)[C@H](NC(=O)C6CC6)c6ccccc6)[nH]5)(CC3)CC4)cc2)[nH]1)c1ccccc1)C1CC1` [compound 607], the EC50 was less than 1 nM.
For `COC(=O)N[C@@H](C(=O)N1CCC[C@H]1c1ncc(-c2ccc(C34CCC(c5cnc([C@@H]6CCCN6C(=O)[C@@H](NC(=O)N6CCOCC6)C(C)C)[nH]5)(CC3)CC4)cc2)[nH]1)c1ccccc1` [compound 2052], the EC50 is less than 1 nM.
For the compound `COC(=O)N[C@H](C(=O)N1CCC[C@H]1c1ncc(-c2ccc(C34CCC(c5cnc([C@@H]6CCCN6C(=O)[C@@H](NC(=O)OC)C6CCOCC6)[nH]5)(CC3)CC4)cc2)[nH]1)C(C)C` [compound 2106], the EC50 is less than 1 nM.
The same measure, in the same setting: as for `COC(=O)N[C@H](C(=O)N1CCC[C@H]1c1ncc(-c2ccc(C34CCC(c5cnc([C@@H]6CCCN6C(=O)[C@@H](NC(=O)OC6CCOCC6)C(C)C)[nH]5)(CC3)CC4)cc2)[nH]1)C(C)C` [compound 2053], the figure is 1 to 9.9 nM; as for `COC(=O)N[C@H](C(=O)N1CCC[C@H]1c1ncc(C23CCC(c4ccc(-c5cnc([C@@H]6CCCN6C(=O)[C@@H](NC(=O)N6CC[C@H](O)C6)C(C)C)[nH]5)cc4)(CC2)CC3)[nH]1)C(C)C` [compound 651], 1 to 9.9 nM.
Take `COC(=O)N[C@H](C)C(=O)N1CCC[C@H]1c1ncc(-c2ccc(C34CCC(c5cnc([C@@H]6CCCN6C(=O)[C@@H](C)NC(=O)OC)[nH]5)(CC3)CC4)cc2)[nH]1` [compound 917]: the EC50 is less than 1 nM.
With `COC(=O)N[C@@H](C)C(=O)N1CCC[C@H]1c1ncc(-c2ccc(C34CCC(c5cnc([C@@H]6CCCN6C(=O)[C@H](C)NC(=O)OC)[nH]5)(CC3)CC4)cc2)[nH]1` [compound 916], the EC50 was less than 1 nM.
